Patent US11149031B2, “Substituted N-(3-fluoropropyl)-pyrrolidine compounds, processes for their preparation and therapeutic uses thereof” (SANOFI, priority 2016, dated 2021)
pIC50: −log10 of the molar value. Where two headings read alike, the source gives them in different places.

Experiments:
[1] = tested on: MCF7 cells expressing mutant estrogen receptor Tyr 537 Ser; assay: Test B: cell proliferation/viability assay (CellTiter-Glo) on MCF7 Tyr 537 Ser mutant; assay type: cell-based; settings: Homo sapiens, MCF7, 168 h, MCF7 cells expressing ER Tyr 537 Ser mutant, 7 days of compound exposure, read-out: proliferation MCF7 Y537S IC50
Method in brief: (§1)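 CellTiter-Glo luminescence after 7-day exposure; % viability = background-corrected RLU of sample relative to untreated. MCF7 WT or ER Tyr 537 Ser/Asp 538 Gly mutant-dependent lines, phenol red-free MEM, 5% charcoal-stripped FBS; 3-0.000001 μM, 9 points.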

ERα in MCF7 cells = ERα in MCF7 cells (Homo sapiens (Human), UniProt P03372); assay: Test C: estrogen receptor degradation activity, ERα in cell western assay in MCF7 cells; assay type: cell-based; settings: for DC50: 4 hours post compound addition, ERα in cell western, read-out: Degradation IC50; for % Degradation at 3 μM: 4 hours, relative to fulvestrant
Method in brief: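 In-cell western, MCF7, 4 h compound exposure, 3–0.000018 μM final, 9 points, 1:5 steps. Formalin/Triton fix, anti-ER rabbit mAb overnight cold, Alexa 488 secondary plus 2 μM Syto-64. Green intensity = ERα, red = DNA; no-primary wells as background.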

[2] = target: His6-ERα298-554 D538G mutant (ERα ligand-binding domain) (Homo sapiens (Human), UniProt P03372, D538G); assay: Test A: biochemical antagonist activity, LanthaScreen TR-FRET ERα coactivator assay, D538G mutant; settings: read-out: Antagonism D538G IC50
Method in brief: (§2)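 IC50 values come from a 4-parameter logistic fit of the 520:495 nm TR-FRET ratio after overnight room-temperature incubation. The mix held 0.5 nM ERα 298–554 LBD, Tb-labelled anti-His6 antibody, 250 nM PGC1a peptide and 3 nM or 10 nM estradiol, pH 7.4 phosphate buffer with DTT.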

[3] = tested on: MCF7 cells (breast tumor cells) WT; assay: Test B: cell proliferation/viability assay (CellTiter-Glo) on MCF7 WT; assay type: cell-based; settings: Homo sapiens, MCF7, 168 h, 7 days of compound exposure
Method in brief: as §1

[4] = target: His6-ERα298-554 Y537S mutant (ERα ligand-binding domain) (Homo sapiens (Human), UniProt P03372, Y537S); assay: Test A: biochemical antagonist activity, LanthaScreen TR-FRET ERα coactivator assay, Y537S mutant; settings: read-out: Antagonism Y537S IC50
Method in brief: as §2

[5] = target: His6-ERα298-554 WT (ERα ligand-binding domain) (Homo sapiens (Human), UniProt P03372); assay: Test A: biochemical antagonist activity, LanthaScreen TR-FRET ERα coactivator assay, WT; settings: read-out: Antagonism WT IC50
Method in brief: as §2

[6] = tested on: MCF7 cells expressing mutant estrogen receptor Asp 538 Gly; assay: Test B: cell proliferation/viability assay (CellTiter-Glo) on MCF7 Asp 538 Gly mutant; assay type: cell-based; settings: Homo sapiens, MCF7, 168 h, MCF7 cells expressing ER Asp 538 Gly mutant, 7 days of compound exposure, read-out: proliferation MCF7 D538G IC50
Method in brief: as §1

[7] = asterisk (*): protocol using 10 nM estradiol

ERα in MCF7 cells, sequence (P03372 whole entry): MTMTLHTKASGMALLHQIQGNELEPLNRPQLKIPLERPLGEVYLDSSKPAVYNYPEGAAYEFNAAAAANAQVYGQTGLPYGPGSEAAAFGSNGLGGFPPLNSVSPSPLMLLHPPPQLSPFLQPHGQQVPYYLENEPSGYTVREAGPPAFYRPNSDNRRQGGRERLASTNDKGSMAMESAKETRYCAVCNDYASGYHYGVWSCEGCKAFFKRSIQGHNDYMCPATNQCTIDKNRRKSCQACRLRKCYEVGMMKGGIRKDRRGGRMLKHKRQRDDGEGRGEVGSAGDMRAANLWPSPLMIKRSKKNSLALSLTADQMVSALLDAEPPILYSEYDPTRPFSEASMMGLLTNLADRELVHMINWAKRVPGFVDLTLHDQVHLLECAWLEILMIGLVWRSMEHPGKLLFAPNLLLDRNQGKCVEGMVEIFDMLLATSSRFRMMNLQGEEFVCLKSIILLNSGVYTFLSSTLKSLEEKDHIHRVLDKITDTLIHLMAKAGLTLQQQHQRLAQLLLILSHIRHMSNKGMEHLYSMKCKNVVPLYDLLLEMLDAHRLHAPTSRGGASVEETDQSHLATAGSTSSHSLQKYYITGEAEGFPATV
His6-ERα298-554 Y537S mutant (ERα ligand-binding domain), sequence (P03372 298-554 Y537S): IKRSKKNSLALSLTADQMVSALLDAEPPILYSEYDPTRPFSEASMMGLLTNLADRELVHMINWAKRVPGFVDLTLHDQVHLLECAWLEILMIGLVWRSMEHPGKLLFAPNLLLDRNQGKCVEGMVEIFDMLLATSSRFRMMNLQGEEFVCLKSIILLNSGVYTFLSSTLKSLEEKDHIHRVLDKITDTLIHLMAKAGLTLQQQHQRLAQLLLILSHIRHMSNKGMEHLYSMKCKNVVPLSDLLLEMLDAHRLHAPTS
His6-ERα298-554 WT (ERα ligand-binding domain), sequence (P03372 298-554): as the sequence (P03372 298-554 Y537S) above, with S240Y counted along it
His6-ERα298-554 D538G mutant (ERα ligand-binding domain), sequence (P03372 298-554 D538G): as the sequence (P03372 298-554 Y537S) above, with S240Y, D241G counted along it

Compound	pIC50 [1]	DC50 (ERα in MCF7 cells)	% Degradation at 3 μM (ERα in MCF7 cells)	pIC50 ([2]; protocol with 3 nM estradiol)	pIC50 [3]	pIC50 ([4]; protocol with 3 nM estradiol)	pIC50 ([5]; protocol with 3 nM estradiol)	pIC50 [6]	pIC50 [2, 7]	pIC50 [4, 7]	pIC50 [5, 7]
Cc1c(Cl)cccc1C1=C(c2ccc(O[C@H]3CCN(CCCF)C3)cc2)c2ccc(O)c(F)c2OCC1 [Example 105, 4-(3-chloro-2-methyl-phenyl)-9-fluoro-5-[4-[(3S)-1-(3-fluoropropyl)pyrrolidin-3-yl]oxyphenyl]-2,3-dihydro-1-benzoxepin-8-ol]	7.96	0.2 nM	91%	7.42	9.30	7.64	8.30	8.70			
Oc1ccc2c(c1)SCCC(c1ccc(OC(F)(F)F)cc1F)=C2c1ccc(O[C@H]2CCN(CCCF)C2)cc1 [Example 212, 5-[4-[(3S)-1-(3-fluoropropyl)pyrrolidin-3-yl]oxyphenyl]-4-[2-fluoro-4-(trifluoromethoxy)phenyl]-2,3-dihydro-1-benzothiepin-8-ol]	8.52	2 nM	90%		9.40			9.30	6.10	6.39	7.47
CCOc1ccc(C2=C(c3ccc(O[C@H]4CCN(CCCF)C4)cc3)c3ccc(O)cc3SCC2)c(F)c1Cl [Example 221, 4-(3-chloro-4-ethoxy-2-fluoro-phenyl)-5-[4-[(3S)-1-(3-fluoropropyl)pyrrolidin-3-yl]oxyphenyl]-2,3-dihydro-1-benzothiepin-8-ol]	8.10	0.2 nM	84%		9.30			9.22	6.58	6.88	7.96
COc1ccc(C2=C(c3ccc(O[C@H]4CCN(CCCF)C4)cc3)c3ccc(O)cc3OCC2)c(Cl)c1 [Example 154, 4-(2-chloro-4-methoxy-phenyl)-5-[4-[(3S)-1-(3-fluoropropyl)pyrrolidin-3-yl]oxyphenyl]-2,3-dihydro-1-benzoxepin-8-ol]	8.40	0.2 nM	92%		9.70			9.22	7.11	7.29	8.30
Oc1ccc(C2=C(c3ccc(O[C@H]4CCN(CCCF)C4)cc3)c3ccc(O)cc3OC2)cc1 [Example 83, 4-[4-[(3S)-1-(3-fluoropropyl)pyrrolidin-3-yl]oxyphenyl]-3-(4-hydroxyphenyl)-2H-chromen-7-ol]	7.74	2 nM	75%	5.88	8.70	5.93	7.09	7.89			
Cc1cc(C2=C(c3ccc(O[C@H]4CCN(CCCF)C4)cc3)c3ccc(O)cc3SC2)ccc1Cl [Example 17, 3-(4-chloro-3-methyl-phenyl)-4-[4-[(3S)-1-(3-fluoropropyl)pyrrolidin-3-yl]oxyphenyl]-2H-thiochromen-7-ol]	8.52	2 nM	87%	7.41	9.40	7.85	8.15	9.00			
COc1ccc(C2=C(c3ccc(O[C@H]4CCN(CCCF)C4)cc3)c3ccc(O)cc3SCC2)c(F)c1 [Example 189, 4-(2-fluoro-4-methoxy-phenyl)-5-[4-[(3S)-1-(3-fluoropropyl)pyrrolidin-3-yl]oxyphenyl]-2,3-dihydro-1-benzothiepin-8-ol]	8.40	0.3 nM	88%		9.70			9.00	7.51	7.72	8.70
Oc1ccc2c(c1)SCCC(c1ccc(F)c(OC(F)F)c1)=C2c1ccc(O[C@H]2CCN(CCCF)C2)cc1 [Example 188, 4-[3-(difluoromethoxy)-4-fluoro-phenyl]-5-[4-[(3S)-1-(3-fluoropropyl)pyrrolidin-3-yl]oxyphenyl]-2,3-dihydro-1-benzothiepin-8-ol]	8.40	0.8 nM	90%	6.58	9.70	6.80	8.09	8.70			
